In patent US20050065140A1, “Serotonine reuptake inhibitor” (priority 2001, published 2005):

Target: T1, human 5-HT1A receptor (Homo sapiens, UniProt P08908)
T1 construct: expressed in transfected cells; host or cells: CHO cells (human 5-HT1A/CHO), membrane preparation
T1 sequence (P08908 1-422): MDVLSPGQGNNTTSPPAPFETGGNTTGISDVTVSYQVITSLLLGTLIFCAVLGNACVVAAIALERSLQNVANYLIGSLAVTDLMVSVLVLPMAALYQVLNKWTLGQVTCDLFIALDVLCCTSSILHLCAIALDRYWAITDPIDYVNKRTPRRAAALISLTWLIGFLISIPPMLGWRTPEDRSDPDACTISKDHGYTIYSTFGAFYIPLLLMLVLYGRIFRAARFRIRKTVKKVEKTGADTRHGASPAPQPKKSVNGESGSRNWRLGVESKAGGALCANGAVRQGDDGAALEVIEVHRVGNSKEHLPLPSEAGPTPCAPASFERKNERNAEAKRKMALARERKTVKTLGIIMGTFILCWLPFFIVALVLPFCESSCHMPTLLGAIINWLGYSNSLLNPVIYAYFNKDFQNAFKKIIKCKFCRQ
Assay: 5-HT1A receptor stimulation test, [^35S]GTPγS binding (Test Example 3)
Format: biochemical
Conditions: 10^-5 M test substance; membranes of human 5-HT1A/CHO cells; increase in [^35S]GTPγS binding caused by 10 μM 5-HT taken as 100%
Description: 5-HT1A Receptor Stimulation Test
CHO cells expressing human 5-HT1A receptor (human 5-HT1A/CHO) were used in the experiment. The cells were cultured in F12 containing 10% FCS, 500 μg/ml Geneticin and 100 U/ml penicillin-100 μg/ml streptomycin (all available from GIBCO) in a 5% CO2 incubator, and a membrane preparation was prepared according to the method^3)of A. Newman et al. In detail, cells scraped and collected by the use of buffer solution A (20 mM HEPES, 5 mM MgSO4) were homogenized in a Teflon™ homogenizer, followed by centrifugation (50,000×g, 30 min, 4° C.). The precipitate was re-suspended in a suitable volume of buffer solution A and stored at −80° C. until use. The amount of protein in the membrane preparation was determined with Dye Reagent Concentrate (BIO-RAD) by using Albumin Bovine (SIGMA) as a standard substance.
Binding of [^35S]GTPγS to human 5-HT1A receptors was measured by the use of the above-mentioned membrane preparation according to the method^3)of A. Newman et al. In detail, 0.05 nM of [^35S]GTPγS (E.I. du Pont de Nemours & Co. NEN) and a definite amount (about 50 μg/tube) of the membrane preparation were added to buffer solution B (20 mM HEPES, 3 mM MgSO4, 3 μM GDP, 1 mM DTT) containing 10^−5 M of each test substance, and the resulting liquid for reaction having a total volume of 1 ml was incubated at 22° C. for 20 minutes. After completion of the reaction, the reaction mixture was diluted with 5 ml of ice-cooled buffer solution B, and the dilution was immediately filtered by suction through glass fiber filter (Whatman, GF/B) to terminate the reaction. The glass fiber filter was washed twice with the same buffer solution as above and placed in a vial, and 4 ml of ACS-II was added thereto. The radioactivity of [^35S]GTPγS on the filter was measured with a liquid scintillation counter. The amount of [^35S]GTPγS specifically bound was calculated from the amount of [^35S]GTPγS non-specifically bound in the presence of 10 μM of GTPγS (Sigma). The 5-HT1A receptor stimulating activity of each test substance was expressed in terms of the rate of increase in [^35S]GTPγS binding by taking an increase in [^35S]GTPγS binding caused by 10 μM of 5-HT, as 100%.

| SMILES | 5-HT1A receptor stimulating activity (%) |
| --- | --- |
| COc1ccc(Br)c(CC2CCN(CCC3CCN(CCO)CC3)CC2)c1.Cl.Cl [Example 6, 2-(4-(2-(4-(2-Bromo-5-methoxybenzyl)-1-piperidinyl)ethyl)-1-piperidinyl)ethanol Dihydrochloride] | 53 |
| CCN[C@H]1CC[C@H](CCN2CCC(Cc3cc(OC)ccc3Br)CC2)CC1.Cl.Cl [Example 38, trans-N-(4-(2-(4-(2-bromo-5-methoxybenzyl)-piperidin-1-yl)ethyl)cyclohexyl)-N-ethylamine Dihydrochloride] | 48 |
| CO[C@H]1CC[C@H](CCN2CCC(Cc3cc(OC(C)C)ccc3Br)CC2)CC1.Cl [Example 44, trans-4-(2-Bromo-5-isopropoxybenzyl)-1-(2-(4-methoxycyclohexyl)ethyl)piperidine Hydrochloride] | 51 |
| CCN([C@H]1CC[C@H](CCCN2CCC(Cc3cc(OC(C)C)ccc3Br)CC2)CC1)S(C)(=O)=O.Cl [Example 46, trans-N-(4-(3-(4-(2-bromo-5-isopropoxy-benzyl)piperidin-1-yl)propyl)cyclohexyl)-N-ethylmethanesulfonamide Hydrochloride] | 62 |
| COc1ccc(Br)c(CC2CCN(CC[C@H]3CC[C@H](NS(=O)(=O)N(C)C)CC3)CC2)c1.Cl [Example 47, trans-N′-(4-(2-(4-(2-bromo-5-methoxybenzyl)-piperidin-1-yl)ethyl)cyclohexyl)-N,N-dimethylsulfamide hydrochloride] | 37 |
| COc1ccc(Br)c(CC2CCN(CC[C@H]3CC[C@H](NC(=O)C(F)(F)F)CC3)CC2)c1.Cl [Example 48, trans-N-(4-(2-(4-(2-bromo-5-methoxybenzyl)-piperidin-1-yl)ethyl)cyclohexyl)-2,2,2-trifluoro-acetamide Hydrochloride] | 33 |
| CCN(CC)[C@H]1CC[C@@H](CCCN2CCC(Cc3cc(OC)ccc3Br)CC2)CC1.Cl.Cl [Example 54, cis-N-(4-(3-(4-(2-bromo-5-methoxybenzyl)-piperidin-1-yl)propyl)cyclohexyl)-N,N-diethylamine Dihydrochloride] | 16 |
| CCN(CCOC)[C@H]1CC[C@H](CCN2CCC(Cc3cc(OC)ccc3Br)CC2)CC1.Cl.Cl [Example 58, trans-N-(4-(2-(4-(2-bromo-5-methoxybenzyl)-piperidin-1-yl)ethyl)cyclohexyl)-N-ethyl-N-(2-methoxyethyl)amine Dihydrochloride] | 30 |
| COc1ccc(Br)c(CC2CCN(CC[C@H]3CC[C@@H](CCO)CC3)CC2)c1.Cl [Example 64, cis-2-(4-(2-(4-(2-Bromo-5-methoxybenzyl)-piperidin-1-yl)ethyl)cyclohexyl)ethanol Hydrochloride] | 19 |
| CC(C)Oc1ccc(Br)c(CC2CCN(CC3CCc4ccccc4N3)CC2)c1.Cl.Cl (stereo not shown) [Example 65, 2-((4-(2-Bromo-5-isopropoxybenzyl)piperidin-1-yl)methyl)-1,2,3,4-tetrahydroquinoline Dihydrochloride] | 64 |
| Cl.Cl.Clc1ccc(Br)c(CC2CCN(CC3CCc4ccccc4N3)CC2)c1 (stereo not shown) [Example 67, 2-((4-(2-Bromo-5-chlorobenzyl)piperidin-1-yl)methyl)-1,2,3,4-tetrahydroquinoline Dihydrochloride] | 74 |
| COc1ccc(Br)c(CC2CCN(CC3CCc4ccccc4N3)CC2)c1.Cl.Cl (stereo not shown) [Example 69, 2-((4-(2-Bromo-5-methoxybenzyl)piperidin-1-yl)methyl)-1,2,3,4-tetrahydroquinoline Dihydrochloride] | 63 |
| COc1ccc(Br)c(CC2CCN(CC3CNc4ccccc4C3)CC2)c1.Cl.Cl (stereo not shown) [Example 70, 3-((4-(2-Bromo-5-methoxybenzyl)piperidin-1-yl)methyl)-1,2,3,4-tetrahydroquinoline Dihydrochloride] | 7 |
